What was measured:
Assay type in all cases: in vivo, C57BL/6 mice
[1] = test system: bleomycin-induced pulmonary fibrosis; test: Histopathological analysis of lung (H&E, Masson's trichrome) in bleomycin-induced mouse model; settings: 15, 30, 60 mg/kg intraperitoneally for 2 weeks after 2 mg/kg bleomycin into the airway
Protocol: (§1) As a bleomycin model, 7-week old female C57BL/6 mice were used, and the mice were divided into a total of 5 groups, a bleomycin-administered group, CG200745-administered groups in which CG200745 is administered at 15, 30, 60 mg/kg after administration of bleomycin, and a control group to perform the experiment. Airway incision was performed on the mice and 2 mg/kg bleomycin was injected into the airway in a volume of 50 μl. After injection, the incision site was closed with 5-0 nylon. After the injection of bleomycin, the drug was administered intraperitoneally for a total of 2 weeks. The mice were sacrificed and subjected to chest opening and then the lungs were removed and fixed with 4% paraformaldehyde. They were fixed by immersing in 4% paraformaldehyde for 48 hours at 4° C., and then a paraffin block was prepared. 4 μm of microsection was made from the paraffin-embedded tissue and attached to a slide. Hemotoxin and eosin staining and Masson's trichrome staining were performed. For hemotoxin and eosin staining, the slide was immersed in xylene twice for 5 minutes each and in 100%, 95% and 70% ethanol for 2 minutes each, and washed with running distilled water. After washing, the slide was immersed in hematoxylin for 1 minute, washed several times with running distilled water, then immersed in eosin for 30 seconds and washed several times with running distilled water. […]

[2] = test system: collagen; test: Sircol assay of bronchoalveolar lavage fluid in polyhexamethylene guanidine-induced pulmonary fibrosis mouse model; settings: 15, 30, 60 mg/kg intraperitoneally for 2 weeks after 1 mg/kg polyhexamethylene guanidine into the airway
Protocol: (§2) As a polyhexamethylene guanidine (PHMG) model, 7-week old female C57BL/6 mice were used, and the mice were divided into a total of 5 groups, a polyhexamethylene guanidine-administered group, CG200745-administered groups in which CG200745 is administered at 15, 30, 60 mg/kg after administration of polyhexamethylene guanidine, and a control group to perform the experiment. Airway incision was performed on the mice and 1 mg/kg polyhexamethylene guanidine was injected into the airway in a volume of 50 μl. After injection, the incision site was closed with 5-0 nylon. After the injection of polyhexamethylene guanidine, the drug was administered intraperitoneally for a total of 2 weeks.
After two weeks of drug administration, the skin of the airway of the mouse was incised to expose the airway and washed with 800 μl of PBS into the trachea and then 500 μl of the solution was recovered therefrom to obtain bronchoalveolar lavage fluid. The bronchoalveolar lavage fluid was centrifuged at 4° C. and 1,200 rpm for 5 minutes to obtain supernatant. 50 μl of the bronchoalveolar lavage fluid and 1 ml of sircol dye reagent were mixed for 30 minutes. […] After discarding the supernatant, 1 ml of Alkali reagent was added and absorbance was measured at 555 nm.

[3] = test system: polyhexamethylene guanidine-induced pulmonary fibrosis; test: Histopathological analysis of lung (H&E, Masson's trichrome) in polyhexamethylene guanidine-induced pulmonary fibrosis mouse model; settings: 15, 30, 60 mg/kg intraperitoneally for 2 weeks after 1 mg/kg polyhexamethylene guanidine into the airway
Protocol: as §1, with “a polyhexamethylene guanidine (PHMG)” for “a bleomycin”, “a polyhexamethylene guanidine-administered” for “a bleomycin-administered”, “of polyhexamethylene guanidine,” for “of bleomycin,”, “and 1” for “and 2”, “mg/kg polyhexamethylene guanidine” for “mg/kg bleomycin”, “water.” for “water. After washing, the slide was immersed in hematoxylin for 1 minute, washed several times with running distilled water, then immersed in eosin for 30 seconds and washed several times with running distilled water.”

[4] = test system: collagen; test: Sircol assay of bronchoalveolar lavage fluid in bleomycin-induced mouse model; settings: 15, 30, 60 mg/kg intraperitoneally for 2 weeks after 2 mg/kg bleomycin into the airway
Protocol: as §2, with “a bleomycin” for “a polyhexamethylene guanidine (PHMG)”, “a bleomycin-administered” for “a polyhexamethylene guanidine-administered”, “of bleomycin,” for “of polyhexamethylene guanidine,”, “and 2” for “and 1”, “mg/kg bleomycin” for “mg/kg polyhexamethylene guanidine”
After two weeks of drug administration, the skin of the airway of the mouse was incised to expose the airway and washed with 800 μl of PBS into the trachea and then 500 μl of the solution was recovered therefrom to obtain bronchoalveolar lavage fluid. The bronchoalveolar lavage fluid was centrifuged at 4° C. and 1,200 rpm for 5 minutes to obtain supernatant. 50 μl of the bronchoalveolar lavage fluid and 1 ml of sircol dye reagent were mixed for 30 minutes. After centrifugation at 4° C. and 12,000 rpm for 10 minutes, the supernatant was discarded, 750 μl of Acid-salt wash reagent was added for washing, and then centrifugation was performed at 12,000 rpm for 10 minutes. After discarding the supernatant, 1 ml of Alkali reagent was added and absorbance was measured at 555 nm.

[5] = test system: α-SMA (alpha-smooth muscle actin); test: Expression level of fibrosis marker α-SMA by real-time PCR in kidney of unilateral ureteral obstruction mouse model; settings: 30 mg/kg intake, kidney with renal failure induced through ureteral obstruction, compared to the solvent control group
Protocol: 8-week old female C57BL/6 mice were used. After opening the abdomen of C57BL/6 mice, one of two ureters was closed with 6-0 cotton yarn. After closing the ureter, the abdomen was sutured and disinfected. Immediately after surgery, the host mice were classified into the solvent control group which is the non-intake group, and the CG200745 intake group in which CG200745 dissolved in distilled water was consumed (30 mg/kg/day). On the 7th day after surgery, the solvent control group and the CG200745 intake group mice were euthanized, and then normal kidney and the kidney with acute renal failure induced after ureteral obstruction were extracted. […]
The kidney cortex was homogenized with Trizol solution (Invitrogen, Carlsbad, Calif.). […] The washed RNA was dissolved in distilled water and then the concentration was determined by measuring absorbance at 260 nm (Ultraspec 2000; Pharmacia Biotech, Cambridge, UK). cDNA was produced by reverse transcription of […] RNA using oligo(dT) primer and superscript reverse transcriptase II (Invitrogen, Carlsbad, Calif.). The produced cDNA was quantified by measuring with SYBR Green using Smart Cycler II System (Cepheid, Sunnyvale, Calif.). […]

[6] = test system: α-SMA, Collagen I, PAI-1, Acetylated H3; test: Western blot of fibrosis markers and Acetylated H3 in lung tissue of bleomycin-induced mouse model; settings: 15, 30, 60 mg/kg intraperitoneally for 2 weeks, western blot densitometry
Protocol: as §2, with “a bleomycin” for “a polyhexamethylene guanidine (PHMG)”, “a bleomycin-administered” for “a polyhexamethylene guanidine-administered”, “of bleomycin,” for “of polyhexamethylene guanidine,”, “and 2” for “and 1”, “mg/kg bleomycin” for “mg/kg polyhexamethylene guanidine”
(§3) Western blot was performed to identify makers of pulmonary fibrosis (α-SMA, collagen I, PAI-1, E-cadherin, N-cadherin) and Acetylated H3 in tissues. The mice were sacrificed, and then subjected to chest opening and the lungs were removed and stored frozen for a day, and the mouse tissues were ground to prepare a protein sample. It was subjected to SDS-PAGE and the fractionated protein sample was transferred to PVDF (polyvinylidene difluoride) membrane. […]
(§4) With the average for two controls being 1, the relative value was recorded to conduct densitometry analysis.

[7] = test system: kidney with acute renal failure induced after ureteral obstruction (renal fibrosis); test: Histopathology analysis (hematoxylin and eosin) of kidney in unilateral ureteral obstruction (renal failure) mouse model; settings: 30 mg/kg/day intake in distilled water, day 7 after ureteral obstruction, compared to the solvent control group
Protocol: 8-week old female C57BL/6 mice were used. After opening the abdomen of C57BL/6 mice, one of two ureters was closed with 6-0 cotton yarn. After closing the ureter, the abdomen was sutured and disinfected. Immediately after surgery, the host mice were classified into the solvent control group which is the non-intake group, and the CG200745 intake group in which CG200745 dissolved in distilled water was consumed (30 mg/kg/day). On the 7th day after surgery, the solvent control group and the CG200745 intake group mice were euthanized, and then normal kidney and the kidney with acute renal failure induced after ureteral obstruction were extracted. The extracted normal kidney and kidney with acute renal failure induced were fixed with 4% paraformaldehyde, and then covered with paraffin to prepare a tissue section with a 3 μm thickness. Hematoxylin and eosin staining was conducted on the completed tissue sections to perform a histopathological analysis of renal tissues. For hematoxylin staining, kidney tissue sections were stained with Gill's hematoxylin for 5 minutes, washed with tap water, and then treated with 95% ethanol. Eosin staining was performed by staining with eosin and phloxine for 1 minute. The tissue sections were then dehydrated with ethanol and xylene and fixed with Canada balsam.

[8] = test system: α-SMA, Collagen I, PAI-1, Acetylated H3; test: Western blot of fibrosis markers and Acetylated H3 in lung tissue of polyhexamethylene guanidine-induced pulmonary fibrosis mouse model; settings: PHMG model, 15, 30, 60 mg/kg intraperitoneally for 2 weeks, western blot densitometry
Protocol: as §2, §3, §4

## CN(C)CCCNC(=O)/C(=C/CCCCC(=O)NO)COc1cccc2ccccc12 [CG200745, (E)-N1-(3-(dimethylamino)propyl)-N8-hydroxy-2-((naphthalene-1-yloxy)methyl)oct-2-enediamide]
[1]
  degree of fibrosis and collagen accumulation increased by bleomycin treatment (lung histopathology): significantly decreased in CG200745 concentration-dependent manner and normalized
[2]
  collagen in bronchoalveolar lavage fluid increased by polyhexamethylene guanidine (sircol assay): significantly decreased in CG200745 concentration-dependent manner
[3]
  polyhexamethylene guanidine-induced pulmonary fibrosis (lung histopathology): suppressed in CG200745 concentration-dependent manner and normalized
[4]
  collagen in bronchoalveolar lavage fluid increased by bleomycin treatment (sircol assay): significantly decreased in CG200745 concentration-dependent manner
[5]
  reduction of α-SMA expression (real-time PCR): ≥ 50%
[6]; lung tissue
  expression levels of fibrosis markers (α-SMA, Collagen I, PAI-1) increased by bleomycin treatment: reduced in CG200745 concentration-dependent manner
[6]
  level of histone acetylation (Acetylated H3) in lung tissue: increased
[7]
  fibrosis progression in the kidney (histopathology): inhibited
[8]; lung tissue
  expression levels of fibrosis markers (α-SMA, Collagen I, PAI-1) increased by polyhexamethylene guanidine treatment: reduced in CG200745 concentration-dependent manner
[8]
  level of histone acetylation (Acetylated H3) in lung tissue: increased

From patent publication US20210015772A1, “PHARMACEUTICAL COMPOSITION FOR PREVENTION OR TREATMENT OF FIBROSIS” (CRYSTALGENOMICS, INC., priority 2018, published 2021)
